Test results as given in PubChem BioAssay AID2060896 (Molecular Pharmacology Branch, DTP, NCI, 2025).

System: 941728-121-R-J1-PDC complex spheroid viability
Test: Anticancer human tumor 941728-121-R-J1-PDC patient-derived lung adenocarcinoma cell line growth inhibition [RAS]
Settings: for IC50: curve of first compound; for viability, T/C: stronger effect = lower value
Summary of the method: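 Multi-cell-type spheroids: tumor cells plus HUVEC endothelial cells and mesenchymal stem cells. RAS-pathway inhibitors were combined with targeted agents, each dosed in half-log steps down from clinical Cmax, or from 10 microM when Cmax was unknown.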
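Further: spheroids exposed to compounds for 7 days before readout.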
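Wherever viability, T/C is given: 100% = DMSO vehicle control viability.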

CC(=O)OC12COC1CC(O)C1(C)C(=O)C(O)C3=C(C)C(OC(=O)C(O)C(NC(=O)OC(C)(C)C)c4ccccc4)CC(O)(C(OC(=O)c4ccccc4)C21)C3(C)C (centres undefined) + CCn1c(-c2cccnc2C(C)OC)c2c3cc(ccc31)N1CCOC(CC(NC(=O)C(C(C)C)N(C)C(=O)C3(F)CCN(C(=O)C#CC(C)(C)N(C)C)CC3)C(=O)N3CCCC(N3)C(=O)OCC(C)(C)C2)C1
IC50 (second compound 0.000949 µM): < 31.6 nM
IC50 (second compound 0.003 µM): < 31.6 nM
IC50 (second compound 0.00949 µM): < 31.6 nM
IC50 (second compound 0.03 µM): < 31.6 nM
IC50 (second compound 0.0949 µM): < 31.6 nM
IC50 (second compound 0.3 µM): < 31.6 nM
viability, T/C (second compound 0.000949 µM, first compound 0.0316 µM): 18.3%
viability, T/C (second compound 0.000949 µM, first compound 0.1 µM): 15.4%
viability, T/C (second compound 0.000949 µM, first compound 0.316 µM): 11.9%
viability, T/C (second compound 0.000949 µM, first compound 1 µM): 15.6%
viability, T/C (second compound 0.000949 µM, first compound 3.16 µM): 15.1%
viability, T/C (second compound 0.000949 µM, first compound 10 µM): 14.2%
viability, T/C (second compound 0.003 µM, first compound 0.0316 µM): 17.3%
viability, T/C (second compound 0.003 µM, first compound 0.1 µM): 15.6%
viability, T/C (second compound 0.003 µM, first compound 0.316 µM): 13.1%
viability, T/C (second compound 0.003 µM, first compound 1 µM): 14.4%
viability, T/C (second compound 0.003 µM, first compound 3.16 µM): 14.9%
viability, T/C (second compound 0.003 µM, first compound 10 µM): 11.1%
viability, T/C (second compound 0.00949 µM, first compound 0.0316 µM): 16.9%
viability, T/C (second compound 0.00949 µM, first compound 0.1 µM): 13.9%
viability, T/C (second compound 0.00949 µM, first compound 0.316 µM): 13.1%
viability, T/C (second compound 0.00949 µM, first compound 1 µM): 13.8%
viability, T/C (second compound 0.00949 µM, first compound 3.16 µM): 12.7%
viability, T/C (second compound 0.00949 µM, first compound 10 µM): 12.7%
viability, T/C (second compound 0.03 µM, first compound 0.0316 µM): 17.6%
viability, T/C (second compound 0.03 µM, first compound 0.1 µM): 16.2%
viability, T/C (second compound 0.03 µM, first compound 0.316 µM): 14.4%
viability, T/C (second compound 0.03 µM, first compound 1 µM): 13%
viability, T/C (second compound 0.03 µM, first compound 3.16 µM): 14.6%
viability, T/C (second compound 0.03 µM, first compound 10 µM): 16.3%
viability, T/C (second compound 0.0949 µM, first compound 0.0316 µM): 15.9%
viability, T/C (second compound 0.0949 µM, first compound 0.1 µM): 15.1%
viability, T/C (second compound 0.0949 µM, first compound 0.316 µM): 16.1%
viability, T/C (second compound 0.0949 µM, first compound 1 µM): 15.3%
viability, T/C (second compound 0.0949 µM, first compound 3.16 µM): 13.6%
viability, T/C (second compound 0.0949 µM, first compound 10 µM): 17.3%
viability, T/C (second compound 0.3 µM, first compound 0.0316 µM): 16.8%
viability, T/C (second compound 0.3 µM, first compound 0.1 µM): 17.5%
viability, T/C (second compound 0.3 µM, first compound 0.316 µM): 16.6%
viability, T/C (second compound 0.3 µM, first compound 1 µM): 15.9%
viability, T/C (second compound 0.3 µM, first compound 3.16 µM): 15.8%
viability, T/C (second compound 0.3 µM, first compound 10 µM): 16.9%

CCc1c2c(nc3ccc(O)cc13)-c1cc3c(c(=O)n1C2)COC(=O)[C@]3(O)CC + CCn1c(-c2cccnc2C(C)OC)c2c3cc(ccc31)N1CCOC(CC(NC(=O)C(C(C)C)N(C)C(=O)C3(F)CCN(C(=O)C#CC(C)(C)N(C)C)CC3)C(=O)N3CCCC(N3)C(=O)OCC(C)(C)C2)C1
IC50 (second compound 0.000949 µM): < 0.949 nM
IC50 (second compound 0.003 µM): < 0.949 nM
IC50 (second compound 0.00949 µM): < 0.949 nM
IC50 (second compound 0.03 µM): < 0.949 nM
IC50 (second compound 0.0949 µM): < 0.949 nM
IC50 (second compound 0.3 µM): < 0.949 nM
viability, T/C (second compound 0.000949 µM, first compound 0.000949 µM): 23.7%
viability, T/C (second compound 0.000949 µM, first compound 0.003 µM): 18.9%
viability, T/C (second compound 0.000949 µM, first compound 0.00949 µM): 14.2%
viability, T/C (second compound 0.000949 µM, first compound 0.03 µM): 17.5%
viability, T/C (second compound 0.000949 µM, first compound 0.0949 µM): 11.7%
viability, T/C (second compound 0.000949 µM, first compound 0.3 µM): 6.82%
viability, T/C (second compound 0.003 µM, first compound 0.000949 µM): 25.2%
viability, T/C (second compound 0.003 µM, first compound 0.003 µM): 21.1%
viability, T/C (second compound 0.003 µM, first compound 0.00949 µM): 14.8%
viability, T/C (second compound 0.003 µM, first compound 0.03 µM): 14.4%
viability, T/C (second compound 0.003 µM, first compound 0.0949 µM): 12.2%
viability, T/C (second compound 0.003 µM, first compound 0.3 µM): 7.12%
viability, T/C (second compound 0.00949 µM, first compound 0.000949 µM): 22.4%
viability, T/C (second compound 0.00949 µM, first compound 0.003 µM): 16.3%
viability, T/C (second compound 0.00949 µM, first compound 0.00949 µM): 17.1%
viability, T/C (second compound 0.00949 µM, first compound 0.03 µM): 13.5%
viability, T/C (second compound 0.00949 µM, first compound 0.0949 µM): 11.2%
viability, T/C (second compound 0.00949 µM, first compound 0.3 µM): 7.23%
viability, T/C (second compound 0.03 µM, first compound 0.000949 µM): 22.5%
viability, T/C (second compound 0.03 µM, first compound 0.003 µM): 18.8%
viability, T/C (second compound 0.03 µM, first compound 0.00949 µM): 18%
viability, T/C (second compound 0.03 µM, first compound 0.03 µM): 16.2%
viability, T/C (second compound 0.03 µM, first compound 0.0949 µM): 9.36%
viability, T/C (second compound 0.03 µM, first compound 0.3 µM): 8.84%
viability, T/C (second compound 0.0949 µM, first compound 0.000949 µM): 19.7%
viability, T/C (second compound 0.0949 µM, first compound 0.003 µM): 19.7%
viability, T/C (second compound 0.0949 µM, first compound 0.00949 µM): 17.2%
viability, T/C (second compound 0.0949 µM, first compound 0.03 µM): 15.3%
viability, T/C (second compound 0.0949 µM, first compound 0.0949 µM): 10.7%
viability, T/C (second compound 0.0949 µM, first compound 0.3 µM): 9.1%
viability, T/C (second compound 0.3 µM, first compound 0.000949 µM): 21.8%
viability, T/C (second compound 0.3 µM, first compound 0.003 µM): 18%
viability, T/C (second compound 0.3 µM, first compound 0.00949 µM): 16.4%
viability, T/C (second compound 0.3 µM, first compound 0.03 µM): 14.2%
viability, T/C (second compound 0.3 µM, first compound 0.0949 µM): 10.8%
viability, T/C (second compound 0.3 µM, first compound 0.3 µM): 7.87%
